This is an account of results in ChEMBL document CHEMBL1201862, “PubChem BioAssay data set” (2004).

In experiment [1] the target is T1, Protein skinhead-1 (Caenorhabditis elegans, UniProt P34707).
T1 sequence (P34707 whole entry): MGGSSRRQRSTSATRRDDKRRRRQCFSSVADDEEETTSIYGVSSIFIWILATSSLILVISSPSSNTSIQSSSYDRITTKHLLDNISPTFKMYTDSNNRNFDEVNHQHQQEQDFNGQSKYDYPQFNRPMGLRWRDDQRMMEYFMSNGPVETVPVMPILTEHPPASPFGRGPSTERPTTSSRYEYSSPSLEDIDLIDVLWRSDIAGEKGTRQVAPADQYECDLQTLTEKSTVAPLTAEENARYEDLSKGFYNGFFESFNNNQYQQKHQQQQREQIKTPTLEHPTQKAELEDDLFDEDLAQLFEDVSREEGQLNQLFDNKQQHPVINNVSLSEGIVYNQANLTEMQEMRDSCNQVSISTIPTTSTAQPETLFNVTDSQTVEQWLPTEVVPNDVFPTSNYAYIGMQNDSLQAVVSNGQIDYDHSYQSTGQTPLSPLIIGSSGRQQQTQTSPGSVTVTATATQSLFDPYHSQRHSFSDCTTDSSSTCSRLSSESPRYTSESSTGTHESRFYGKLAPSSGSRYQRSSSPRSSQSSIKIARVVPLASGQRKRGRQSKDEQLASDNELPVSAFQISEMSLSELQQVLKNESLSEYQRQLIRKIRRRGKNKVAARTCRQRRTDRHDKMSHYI
It counts as functional.

Experiment [2] deals with T2, Protein RecA (Mycobacterium tuberculosis, UniProt P9WHJ3).
T2 sequence (P9WHJ3 whole entry): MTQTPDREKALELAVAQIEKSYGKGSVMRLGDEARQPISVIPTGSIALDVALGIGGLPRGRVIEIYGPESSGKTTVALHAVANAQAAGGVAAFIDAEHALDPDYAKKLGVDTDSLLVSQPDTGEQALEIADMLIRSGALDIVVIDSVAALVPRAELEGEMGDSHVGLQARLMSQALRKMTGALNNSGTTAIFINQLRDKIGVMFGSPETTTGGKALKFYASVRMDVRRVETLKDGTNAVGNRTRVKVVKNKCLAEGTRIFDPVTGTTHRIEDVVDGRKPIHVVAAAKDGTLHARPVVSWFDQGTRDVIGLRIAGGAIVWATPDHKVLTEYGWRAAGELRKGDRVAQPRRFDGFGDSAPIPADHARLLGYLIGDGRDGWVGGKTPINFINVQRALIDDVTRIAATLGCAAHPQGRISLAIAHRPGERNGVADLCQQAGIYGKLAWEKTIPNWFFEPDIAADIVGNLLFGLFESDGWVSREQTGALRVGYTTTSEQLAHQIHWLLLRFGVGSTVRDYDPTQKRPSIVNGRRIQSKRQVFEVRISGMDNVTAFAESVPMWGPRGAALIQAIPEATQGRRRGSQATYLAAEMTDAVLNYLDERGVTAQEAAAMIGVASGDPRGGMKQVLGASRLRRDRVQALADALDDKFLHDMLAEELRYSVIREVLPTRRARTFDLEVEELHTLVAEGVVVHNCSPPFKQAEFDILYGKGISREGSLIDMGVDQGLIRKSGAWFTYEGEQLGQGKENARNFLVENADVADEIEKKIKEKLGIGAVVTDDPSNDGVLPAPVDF
As to the kind of experiment: Fluorescence Cell-Free Homogeneous Dose Retest to Identify Inhibitors of RecA-Intein Splicing Activity. [Related pubchem assays (depositor defined):AID2097, AID2223, AID489010, AID492950]. It counts as functional.

The target in experiment [3] is T3, Replicative DNA helicase DnaB (Mycobacterium tuberculosis, UniProt P9WMR3).
T3 sequence (P9WMR3 whole entry): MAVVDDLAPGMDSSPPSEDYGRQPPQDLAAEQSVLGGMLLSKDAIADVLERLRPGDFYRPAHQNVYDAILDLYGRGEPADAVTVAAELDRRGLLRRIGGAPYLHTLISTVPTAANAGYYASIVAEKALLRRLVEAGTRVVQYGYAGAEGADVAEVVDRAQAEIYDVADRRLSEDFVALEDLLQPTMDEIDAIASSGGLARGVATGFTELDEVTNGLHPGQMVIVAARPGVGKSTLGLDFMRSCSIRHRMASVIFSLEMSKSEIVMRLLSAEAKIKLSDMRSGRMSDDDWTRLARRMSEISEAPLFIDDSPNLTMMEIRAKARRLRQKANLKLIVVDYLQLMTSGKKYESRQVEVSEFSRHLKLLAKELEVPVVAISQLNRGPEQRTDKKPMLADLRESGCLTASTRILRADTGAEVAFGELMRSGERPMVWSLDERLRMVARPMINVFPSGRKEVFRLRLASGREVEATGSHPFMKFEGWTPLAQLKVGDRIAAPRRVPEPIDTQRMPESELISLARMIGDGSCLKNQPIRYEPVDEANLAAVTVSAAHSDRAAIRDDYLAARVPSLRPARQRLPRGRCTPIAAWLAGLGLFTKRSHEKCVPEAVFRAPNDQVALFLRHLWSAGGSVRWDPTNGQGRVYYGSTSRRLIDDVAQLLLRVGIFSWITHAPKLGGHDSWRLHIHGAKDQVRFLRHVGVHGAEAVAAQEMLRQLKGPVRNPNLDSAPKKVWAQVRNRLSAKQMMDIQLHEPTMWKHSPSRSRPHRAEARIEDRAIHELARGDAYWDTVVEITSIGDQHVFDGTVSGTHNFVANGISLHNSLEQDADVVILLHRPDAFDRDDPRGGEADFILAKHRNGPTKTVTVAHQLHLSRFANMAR
The experiment can be described thus: DnaB intein splicing inhibitors, dose response, biochemical, cell-free fluorescence (AID 449749). The class given is functional.

Experiment [4] in a line: Luminescence Cell-Based Dose Retest to Confirm Inhibitors of Cancer Stem Cells. [Related pubchem assays (depositor defined):AID2717, AID2721]. The class given is functional. The note with it: Homo sapiens.
Experiment [5] can be described thus: Luminescence Cell-Based Dose Response HTS to Identify Activators of Luciferase Translation or Activity in H4 […] Cells. [Related pubchem assays: 1829 (Project Summary), 1814 (Primary HTS)]. The class given is functional.
The subject of experiment [6] is H4. As to the kind of experiment: Luminescence Cell-Based Dose Response HTS to Identify Activators of 5'UTR Stem-Loop Driven Prion Protein mRNA Translation in H4 Neuroglioblastoma Cells. [Related pubchem assays: 1829 (Project Summary), 1814 (Primary HTS)]. It counts as functional. The conditions noted are these: Homo sapiens.
Experiment [7] addresses Cytochrome P450 2C9 (Homo sapiens, UniProt P11712).
Experiment [8] deals with Cytochrome P450 3A4 (Homo sapiens, UniProt P08684).
Experiment [9] in a line: NIH-3T3 fibroblast cytotoxicity, dose response, cytotoxicity control, cell-based, fluorescence, Alamar Blue, secondary assay (AID 2327).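 Note: NIH-3T3 mouse fibroblasts cultured with fluconazole at 8 µg/mL.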 It counts as functional. (Resazurin is reduced to fluorescent resorufin, in cell work by metabolically active cells.)
The nature of experiment [10]: fluconazole-exposed Candida albicans growth modulators – fluorescence, retest, confirmation (AID 2467). The class given is functional, cell-based.
Experiment [11] deals with T4, Corticotropin-releasing factor receptor 2/Corticotropin-releasing factor-binding protein (Homo sapiens, UniProt P24387+Q13324).
T4 sequence (Q13324 whole entry): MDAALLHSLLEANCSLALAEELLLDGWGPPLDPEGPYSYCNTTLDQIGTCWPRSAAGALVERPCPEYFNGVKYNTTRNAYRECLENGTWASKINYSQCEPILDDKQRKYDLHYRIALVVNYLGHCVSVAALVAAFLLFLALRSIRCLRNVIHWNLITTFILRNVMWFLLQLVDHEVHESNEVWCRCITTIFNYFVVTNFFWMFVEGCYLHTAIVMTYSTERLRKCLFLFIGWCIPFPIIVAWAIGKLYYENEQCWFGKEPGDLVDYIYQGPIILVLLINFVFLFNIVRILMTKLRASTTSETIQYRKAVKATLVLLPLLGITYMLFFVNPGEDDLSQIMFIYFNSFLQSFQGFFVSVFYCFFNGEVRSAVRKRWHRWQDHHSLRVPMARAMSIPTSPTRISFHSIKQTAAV
T4 sequence (P24387 whole entry): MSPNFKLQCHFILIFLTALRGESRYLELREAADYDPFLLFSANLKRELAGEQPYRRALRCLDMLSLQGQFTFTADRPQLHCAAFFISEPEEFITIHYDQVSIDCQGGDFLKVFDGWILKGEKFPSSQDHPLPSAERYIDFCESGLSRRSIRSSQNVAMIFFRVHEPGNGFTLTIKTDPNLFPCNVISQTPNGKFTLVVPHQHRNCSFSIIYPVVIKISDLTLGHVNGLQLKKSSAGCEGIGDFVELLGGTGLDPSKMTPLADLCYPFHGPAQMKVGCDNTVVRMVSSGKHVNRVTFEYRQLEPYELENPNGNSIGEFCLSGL
As to the kind of experiment: activators of CRF receptor 2 with binding protein – uHTS hits, confirmation (AID 602473). The note with it: read-out: EC50_Mean. The class given is functional.

Experiment [12] deals with T4, Corticotropin-releasing factor receptor 2/Corticotropin-releasing factor-binding protein. The experiment can be described thus: Dose Response confirmation of uHTS hits for small molecule antagonists of the CRF-binding protein and CRF-R2 receptor complex. It counts as functional. The note with it: read-out: IC50_Mean.

Molecules are shown by their SMILES. Activity calls are given as the source filed them.

Usually AC50 stands for the concentration at which the activity in the assay is half-maximal.

Cytochrome P450 3A4, sequence (P08684 whole entry): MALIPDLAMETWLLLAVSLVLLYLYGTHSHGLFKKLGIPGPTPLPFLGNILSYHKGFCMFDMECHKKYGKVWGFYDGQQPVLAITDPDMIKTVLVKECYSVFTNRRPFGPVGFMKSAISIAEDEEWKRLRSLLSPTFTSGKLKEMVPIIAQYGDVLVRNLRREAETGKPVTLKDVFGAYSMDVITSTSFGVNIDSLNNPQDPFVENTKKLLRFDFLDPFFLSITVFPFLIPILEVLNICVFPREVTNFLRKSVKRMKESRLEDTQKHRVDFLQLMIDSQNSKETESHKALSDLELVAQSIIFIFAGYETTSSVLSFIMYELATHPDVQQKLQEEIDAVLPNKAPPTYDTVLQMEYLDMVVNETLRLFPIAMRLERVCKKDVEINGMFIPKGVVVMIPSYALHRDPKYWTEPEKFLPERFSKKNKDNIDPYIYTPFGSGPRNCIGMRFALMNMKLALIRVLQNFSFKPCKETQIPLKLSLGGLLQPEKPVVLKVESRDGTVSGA
Cytochrome P450 2C9, sequence (P11712 whole entry): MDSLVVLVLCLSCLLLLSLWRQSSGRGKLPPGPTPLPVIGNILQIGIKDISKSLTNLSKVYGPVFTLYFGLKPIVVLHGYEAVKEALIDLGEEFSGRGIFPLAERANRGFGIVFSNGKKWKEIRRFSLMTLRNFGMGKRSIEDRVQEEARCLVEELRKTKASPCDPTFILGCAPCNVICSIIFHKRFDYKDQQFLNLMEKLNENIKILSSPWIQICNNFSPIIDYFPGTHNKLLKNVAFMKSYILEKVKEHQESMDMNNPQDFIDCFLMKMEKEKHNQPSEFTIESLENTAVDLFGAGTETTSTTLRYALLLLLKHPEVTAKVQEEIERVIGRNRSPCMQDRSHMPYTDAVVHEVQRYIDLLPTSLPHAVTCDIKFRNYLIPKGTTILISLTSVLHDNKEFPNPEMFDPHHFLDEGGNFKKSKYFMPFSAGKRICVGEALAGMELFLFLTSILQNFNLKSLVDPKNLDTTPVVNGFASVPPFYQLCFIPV

Regarding `Cc1nc(-c2cccc(NC(=O)c3ccco3)c2)cs1`, the IC50 in [1] is > 100 µM (inactive).

Consider `Cc1cc(-c2ccccc2)nc2cc(C(=O)N(Cc3ccccc3)Cc3ccccc3)nn12`, for which the EC50 in experiment [2] is > 380 µM (inactive). Besides, the AC50 in experiment [3] is > 120 µM (inactive); in [4], 4.86 µM (active).

For the molecule `Clc1ccc(-c2cc(CSc3ccccc3)on2)cc1`, the IC50 in experiment [1] is 20 µM (active).

For the molecule `CCCn1c(C)cc(C(=O)CSc2nc3ccccc3c(=O)n2Cc2ccco2)c1C`, the EC50 in [5] was 0.112 µM (active); in experiment [6], 5 µM (active).

Turning to `COc1ccc(C(C(=O)NC2CCCC2)N(C(=O)c2snc(-c3ccc(F)cc3)c2N)c2ccc(F)cc2)cc1` (stereo unspecified), the AC50 in experiment [7] was 1.78 µM (inconclusive); in experiment [8], 12.6 µM (inconclusive). Further, the IC50 in experiment [1] was > 100 µM (inactive).

As for `CCCOc1ccc(C(=O)C2=C(O)C(=O)N(c3cc(C)on3)C2c2ccc(C(=O)OC)cc2)cc1` (stereo unspecified), in experiment [1], the IC50 was > 100 µM (inactive).

With `CCOCCCNC(=O)c1ccc(N(C)S(=O)(=O)c2ccc(OC)cc2)cc1`, the results for the EC50 in experiment [9] and in [10] were > 160 µM (inactive) and > 38 µM (not active), respectively.

In the case of `CCCc1cc2nnc(SCC(=O)N(C)C3CCCCC3)n2c(N)n1`, in experiment [1], the IC50 was > 100 µM (inactive).

`CC(C)CSc1nnc2[nH]c(=O)cc(N)n12`: in experiment [11], the EC50 was > 53 µM (inactive). Besides, in [12], the IC50 was > 47.1 µM (inactive).

`COc1cc2c(cc1OC)C(/C=C(\O)c1ccc(OC)c([N+](=O)[O-])c1)=NCC2`: the EC50 in experiment [11] is > 53 µM (inactive). Further, the IC50 in experiment [12] is > 47.1 µM (inactive).

`N#CC1=C(N)N(c2ccccc2)C(c2ccccc2)C1(C#N)C#N` (stereo unspecified): the EC50 in [2] was 11.6 µM (active). Besides, the AC50 in [3] was 7.51 µM (active).

`CC(C)(C)c1ccc(C2=CSC3=NCCN23)cc1`: the IC50 in experiment [1] is > 100 µM (inactive).

For the molecule `Cc1cc2cc(CNC(=O)c3cccc([N+](=O)[O-])c3)ccc2n1C`, the IC50 in experiment [1] was > 100 µM (inactive).

Regarding `COC(=O)c1ccc(C(=O)OC)c(-n2c(=O)c3ccccc3c3ccccc3c2=O)c1`, the EC50 in experiment [2] was 18.5 µM (active). Also, the AC50 in experiment [3] was 8.61 µM (active).

In the case of `CCC(C)Nc1nc(Cl)nc(N(C#N)CN2C(=O)c3ccccc3S2(=O)=O)n1` (stereo unspecified), in experiment [2], the EC50 was 18.2 µM (active). For the same molecule, in experiment [3], the AC50 was 14 µM (active).

For the molecule `CCCNC(=O)c1ccc2c(O)c(O)c(-c3ccc(OC)cc3)nc2c1`, the EC50 in [9] was > 150 µM (inactive); in [10], > 38 µM (not active).

For `CN(CC(=O)Nc1ccc2c(c1)OCCO2)CC(=O)Nc1ccc(F)c(F)c1F`, in experiment [11], the EC50 is > 53 µM (inactive). In [12], the IC50 is > 47.1 µM (inactive).

Take `COc1ccc(CC(=O)O/N=C(\N)Cc2cccc3ccccc23)cc1OC`: in [2], the EC50 is 18.2 µM (active). Further, the AC50 in experiment [3] is 73.3 µM (active).

`O=C(Oc1ccc(N2C(=O)C3C4CCC(C4)C3C2=O)cc1)c1ccco1` (stereo unspecified): in [2], the EC50 is 13 µM (active). Besides, the AC50 in experiment [3] was 28.2 µM (active).

In the case of `N#Cc1ccccc1OCC(O)CS(=O)(=O)c1ccccc1` (stereo unspecified), the IC50 in [1] is > 100 µM (inactive).

For `CC(=O)Nc1ccc2c(c1)Cc1c-2cc(Br)c(N)c1Br`, the IC50 in [1] is > 100 µM (inactive).

Consider `CCn1c(C)nc2cc(C(=O)N/N=C/c3cccc(OC)c3O)ccc21`, for which the EC50 in experiment [9] was 16.2 µM (active); in experiment [10], > 38 µM (not active). For the same molecule, the AC50 in experiment [4] is 8.16 µM (active).

On to `COc1ccc(/C=N/OCC(=O)Nc2nc3ccccc3s2)cc1`, for which the EC50 in experiment [9] is > 150 µM (inactive); in experiment [10], 4.97 µM (active).
